Columns and labels:
[1] = test system: MOLT 4; assay: MTT cytotoxicity assay, MOLT 4 leukemia; assay type: cell-based; details: Homo sapiens; for IC50: 24 h, Molt 4 Leukemia, read-out: ED50 values of cytotoxicity; for cytotoxicity at 1000 µM / cytotoxicity at 2500 µM / cytotoxicity at 4000 µM / cytotoxicity at 5000 µM / cytotoxicity at 10000 µM: MOLT 4 Leukemia, read-out: Percent cytotoxicity; for cytotoxicity at 1000 µM: 1.0 mM; for cytotoxicity at 2500 µM: 2.5 mM; for cytotoxicity at 4000 µM: 4 mM; for cytotoxicity at 5000 µM: 5 mM; for cytotoxicity at 10000 µM: 10 mM
Method: (§1) Briefly, a […] MTT cytotoxicity assay was performed, which is based on the principle of uptake of MTT (3-(4,5-dimethylthiazol-2-yl)-2,5-diphenyl tetrazolium bromide), a tetrazolium salt, by the metabolically active cells where it is metabolized by active mitochondria into a blue colored formazan product that is read spectrophoto-metrically. MTT was dissolved in phosphate buffered saline with a pH of 7.4 to obtain an MTT concentration of 5 mg/ml; the resulting mixture was filtered through a 0.22 micron filter to sterilize and remove a small amount of insoluble residue. For each type of tumor cell, 20,000 to 50,000 cells were seeded in a 96-well culture plate and incubated with the combination in a CO2 incubator for 24 hours. […] The assay was terminated after 24 hours by adding 100 ug (20 ul) of MTT to each well, then incubating for additional one hour, and finally adding 50 ul of 10% SDS-0.01N HCl to each well to lyse the cells and dissolve formazan. After incubating for one hour, the plate was read spectrophotometrically at 540 nm and the percentage cytotoxicity calculated.

[2] = test system: L132; assay: MTT cytotoxicity assay, L132 lung; assay type: cell-based; details: Homo sapiens; for cytotoxicity at 1000 µM: 1.0 mM; for cytotoxicity at 1000 µM / cytotoxicity at 2500 µM / cytotoxicity at 4000 µM / cytotoxicity at 5000 µM / cytotoxicity at 10000 µM: read-out: Percent cytotoxicity; for cytotoxicity at 2500 µM: 2.5 mM; for cytotoxicity at 4000 µM: 4 mM; for cytotoxicity at 5000 µM: 5 mM; for cytotoxicity at 10000 µM: 10 mM; for IC50: 24 h, read-out: ED50 values of cytotoxicity
Method: as §1

[3] = test system: 293; assay: MTT cytotoxicity assay, 293 kidney; assay type: cell-based; details: Homo sapiens, HEK293, 24 h, read-out: ED50 values of cytotoxicity
Method: as §1

[4] = test system: Hep2; assay: MTT cytotoxicity assay, Hep2 larynx; assay type: cell-based; details: Homo sapiens, HEp-2, 24 h, read-out: ED50 values of cytotoxicity
Method: as §1

[5] = test system: PTC; assay: MTT cytotoxicity assay, PTC colon; assay type: cell-based; details: Homo sapiens; for cytotoxicity at 1000 µM: 1.0 mM; for cytotoxicity at 1000 µM / cytotoxicity at 2500 µM / cytotoxicity at 4000 µM / cytotoxicity at 5000 µM / cytotoxicity at 10000 µM: read-out: Percent cytotoxicity; for cytotoxicity at 2500 µM: 2.5 mM; for cytotoxicity at 4000 µM: 4 mM; for cytotoxicity at 5000 µM: 5 mM; for cytotoxicity at 10000 µM: 10 mM; for IC50: 24 h, read-out: ED50 values of cytotoxicity
Method: as §1

[6] = test system: KB; assay: MTT cytotoxicity assay, KB oral; assay type: cell-based; details: Homo sapiens, 24 h, read-out: ED50 values of cytotoxicity
Method: as §1

[7] = test system: MCF7; assay: MTT cytotoxicity assay, MCF7 breast; assay type: cell-based; details: Homo sapiens; for IC50: MCF7, 24 h, MCF 7 Breast, read-out: ED50 values of cytotoxicity; for cytotoxicity at 1000 µM / cytotoxicity at 2500 µM / cytotoxicity at 4000 µM / cytotoxicity at 5000 µM / cytotoxicity at 10000 µM: MCF7 breast, read-out: Percent cytotoxicity; for cytotoxicity at 1000 µM: 1.0 mM; for cytotoxicity at 2500 µM: 2.5 mM; for cytotoxicity at 4000 µM: 4 mM; for cytotoxicity at 5000 µM: 5 mM; for cytotoxicity at 10000 µM: 10 mM
Method: as §1

[8] = test system: PA 1; assay: MTT cytotoxicity assay, PA 1 ovary; assay type: cell-based; details: Homo sapiens; for IC50: 24 h, PA 1 Ovarian, read-out: ED50 values of cytotoxicity; for cytotoxicity at 1000 µM / cytotoxicity at 2500 µM / cytotoxicity at 4000 µM / cytotoxicity at 5000 µM / cytotoxicity at 10000 µM: PA 1 Ovary, read-out: Percent cytotoxicity; for cytotoxicity at 1000 µM: 1.0 mM; for cytotoxicity at 2500 µM: 2.5 mM; for cytotoxicity at 4000 µM: 4 mM; for cytotoxicity at 5000 µM: 5 mM; for cytotoxicity at 10000 µM: 10 mM
Method: as §1

[9] = test system: U87MG; assay: MTT cytotoxicity assay, U87MG glioblastoma; assay type: cell-based; details: Homo sapiens, U-87 MG, 24 h, read-out: ED50 values of cytotoxicity
Method: as §1

[10] = test system: Miapaca2; assay: MTT cytotoxicity assay, Miapaca2 pancreas; assay type: cell-based; details: Homo sapiens; for cytotoxicity at 1000 µM: MIA PaCa-2, 1.0 mM; for cytotoxicity at 1000 µM / cytotoxicity at 2500 µM / cytotoxicity at 4000 µM / cytotoxicity at 5000 µM / cytotoxicity at 10000 µM: read-out: Percent cytotoxicity; for cytotoxicity at 2500 µM: MIA PaCa-2, 2.5 mM; for cytotoxicity at 4000 µM: MIA PaCa-2, 4 mM; for cytotoxicity at 5000 µM: MIA PaCa-2, 5 mM; for cytotoxicity at 10000 µM: MIA PaCa-2, 10 mM; for IC50: MIA PaCa-2, 24 h, read-out: ED50 values of cytotoxicity
Method: as §1

[11] = test system: Swiss albino mice; details: both, mouse, in vivo, po, 15 days
Method: Acute toxicity studies were performed using the oral route of administration.
A batch of 5 female and 5 male mice each was administered the test substance by oral route. […] Another batch of 5 female and 5 male served as control.
Observations were made three times on the day of dosing and twice daily thereafter for the remainder of 14 days or until reversible toxic signs or symptoms subsided. All gross visible toxic signs and symptoms were recorded. Body weights were recorded prior to dosing and weekly thereafter.

[12] = test system: INT 407; assay: MTT cytotoxicity assay, INT 407 intestine; assay type: cell-based; details: Homo sapiens, 24 h, read-out: ED50 values of cytotoxicity
Method: as §1

[13] = test system: DU145; assay: MTT cytotoxicity assay, DU145 prostate; assay type: cell-based; details: Homo sapiens; for cytotoxicity at 1000 µM: DU-145, 1.0 mM; for cytotoxicity at 1000 µM / cytotoxicity at 2500 µM / cytotoxicity at 4000 µM / cytotoxicity at 5000 µM / cytotoxicity at 10000 µM: read-out: Percent cytotoxicity; for cytotoxicity at 2500 µM: DU-145, 2.5 mM; for cytotoxicity at 4000 µM: DU-145, 4 mM; for cytotoxicity at 5000 µM: DU-145, 5 mM; for cytotoxicity at 10000 µM: DU-145, 10 mM; for IC50: DU-145, 24 h, read-out: ED50 values of cytotoxicity
Method: as §1

COC(=O)C1CCC(=O)N1C(OC(C)=O)C(C)=O (stereo not drawn) [MGC-4, N-(1-acetoxy-2-ketopropyl)-methylpyroglutamate]
IC50 [1]: 1500 ± 200 µM
cytotoxicity at 1000 µM [1]: 36.9 ± 3.9%
cytotoxicity at 2500 µM [1]: 57.9 ± 3.1%
cytotoxicity at 4000 µM [1]: 78.9 ± 4.9%
cytotoxicity at 5000 µM [1]: 88.4 ± 7.5%
cytotoxicity at 10000 µM [1]: 85.9 ± 7.3%
cytotoxicity at 1000 µM [2]: 0%
cytotoxicity at 2500 µM [2]: 0%
cytotoxicity at 4000 µM [2]: 0%
cytotoxicity at 5000 µM [2]: 4.9 ± 0.6%
cytotoxicity at 10000 µM [2]: 37.9 ± 3.5%
IC50 [2]: > 5000 µM
IC50 [3]: 1400 ± 100 µM
IC50 [4]: 3200 ± 800 µM
cytotoxicity at 1000 µM [5]: 23.9 ± 3%
cytotoxicity at 2500 µM [5]: 39 ± 5.2%
cytotoxicity at 4000 µM [5]: 56.9 ± 5.9%
cytotoxicity at 5000 µM [5]: 84.2 ± 7.4%
cytotoxicity at 10000 µM [5]: 87.3 ± 6%
IC50 [5]: 3800 ± 1100 µM
IC50 [6]: 1550 ± 300 µM
IC50 [7]: > 5000 µM
cytotoxicity at 1000 µM [7]: 0%
cytotoxicity at 2500 µM [7]: 0%
cytotoxicity at 4000 µM [7]: 3.8 ± 0.4%
cytotoxicity at 5000 µM [7]: 23.8 ± 0.8%
cytotoxicity at 10000 µM [7]: 31.9 ± 2.9%
IC50 [8]: 1600 ± 200 µM
cytotoxicity at 1000 µM [8]: 28.9 ± 3.2%
cytotoxicity at 2500 µM [8]: 67.9 ± 4.9%
cytotoxicity at 4000 µM [8]: 87.9 ± 6.4%
cytotoxicity at 5000 µM [8]: 88.6 ± 6.9%
cytotoxicity at 10000 µM [8]: 88 ± 6.9%
IC50 [9]: 2400 ± 500 µM
cytotoxicity at 1000 µM [10]: 0%
cytotoxicity at 2500 µM [10]: 3.9 ± 0.5%
cytotoxicity at 4000 µM [10]: 46.8 ± 4.9%
cytotoxicity at 5000 µM [10]: 57.9 ± 5.9%
cytotoxicity at 10000 µM [10]: 79.4 ± 4.8%
IC50 [10]: 4200 ± 1100 µM
safe dose [11]: 100 mg
IC50 [12]: 2300 ± 1100 µM
cytotoxicity at 1000 µM [13]: 28.9 ± 4.2%
cytotoxicity at 2500 µM [13]: 58.9 ± 4.9%
cytotoxicity at 4000 µM [13]: 82.1 ± 7.3%
cytotoxicity at 5000 µM [13]: 85.6 ± 7.3%
cytotoxicity at 10000 µM [13]: 87.9 ± 7.3%
IC50 [13]: 1800 ± 300 µM

CCOC(=O)C1CCC(=O)N1C(O)C(C)=O (stereo not drawn) [MGC-7, N-(1-hydroxy-2-ketopropyl)-ethylpyroglutamate]
IC50 [1]: 1500 ± 200 µM
cytotoxicity at 1000 µM [1]: 39.4 ± 2.7%
cytotoxicity at 2500 µM [1]: 58.5 ± 3.8%
cytotoxicity at 4000 µM [1]: 59.1 ± 4.3%
cytotoxicity at 5000 µM [1]: 64.3 ± 4.9%
cytotoxicity at 10000 µM [1]: 73.4 ± 2%
cytotoxicity at 1000 µM [2]: 0%
cytotoxicity at 2500 µM [2]: 0%
cytotoxicity at 4000 µM [2]: 0%
cytotoxicity at 5000 µM [2]: 0%
cytotoxicity at 10000 µM [2]: 0%
IC50 [2]: > 5000 µM
IC50 [3]: 3100 ± 1300 µM
IC50 [4]: 2500 ± 1100 µM
cytotoxicity at 1000 µM [5]: 34.3 ± 1.9%
cytotoxicity at 2500 µM [5]: 54.3 ± 4.9%
cytotoxicity at 4000 µM [5]: 65.9 ± 4.8%
cytotoxicity at 5000 µM [5]: 78.2 ± 3.9%
cytotoxicity at 10000 µM [5]: 82.2 ± 6.1%
IC50 [5]: 2400 ± 500 µM
IC50 [6]: 1850 ± 600 µM
IC50 [7]: 2800 ± 1100 µM
cytotoxicity at 1000 µM [7]: 7 ± 1.3%
cytotoxicity at 2500 µM [7]: 10 ± 2.5%
cytotoxicity at 4000 µM [7]: 69 ± 3.2%
cytotoxicity at 5000 µM [7]: 85 ± 4.5%
cytotoxicity at 10000 µM [7]: 83 ± 4.5%
IC50 [8]: 1200 ± 200 µM
cytotoxicity at 1000 µM [8]: 45.6 ± 1.9%
cytotoxicity at 2500 µM [8]: 58.4 ± 4.7%
cytotoxicity at 4000 µM [8]: 65.5 ± 3.9%
cytotoxicity at 5000 µM [8]: 79.9 ± 5.2%
cytotoxicity at 10000 µM [8]: 84.9 ± 5.4%
IC50 [9]: 1840 ± 600 µM
cytotoxicity at 1000 µM [10]: 0%
cytotoxicity at 2500 µM [10]: 28 ± 1.5%
cytotoxicity at 4000 µM [10]: 89 ± 2.3%
cytotoxicity at 5000 µM [10]: 88 ± 4.1%
cytotoxicity at 10000 µM [10]: 85 ± 4.1%
IC50 [10]: 2400 ± 1000 µM
safe dose [11]: 100 mg
IC50 [12]: 2700 ± 1200 µM
cytotoxicity at 1000 µM [13]: 56 ± 5.9%
cytotoxicity at 2500 µM [13]: 65 ± 2.9%
cytotoxicity at 4000 µM [13]: 78.4 ± 6.9%
cytotoxicity at 5000 µM [13]: 83 ± 4.9%
cytotoxicity at 10000 µM [13]: 89 ± 6.1%
IC50 [13]: 850 ± 300 µM
